{
  "source": "patent US20090215896A1",
  "about": "“REELIN DEFICIENCY OR DYSFUNCTION AND METHODS RELATED THERETO” (MARTEK BIOSCIENCES CORPORATION, priority 2004, published 2009)",
  "system": "Reelin-deficient mice (B6C3Fe a/a-Reln<rl>/J)",
  "experiment": "Reelin feeding study: number of offspring with reeler phenotype per diet group",
  "assay_type": "in vivo",
  "conditions": "DHA to pregnant and lactating dam and to pups after weaning, vs DHA Deficient Diet; P=0.04",
  "from_the_text": "In the following experiment, the inventors tested whether LC-PUFA dietary enrichment (DHA) for mice lacking one or more normal reelin genes will correct Reelin histopathology/symptoms and will normalize the fatty acid profiles observed in Reelin-deficient mice. Specifically, the inventors evaluated whether dietary enrichment of long-chain polyunsaturated fatty acids (DHA) will correct or modulate Reelin histopathology/symptoms in Reelin-deficient mice.\nMaterials and Methods: The Reelin feeding study was sponsored by Martek Biosciences Corporation and initiated at Jackson Labs, Bar Harbor, Me. (Stock used: 300235 B6C3Fe a/a-Reln/J). Heterozygous females were mated with heterozygous males and received one of two experimental diets: a DHA DEFICIENT DIET (0% DHA by weight; 0.14% alpha linolenic acid by weight), or a DHA ADEQUATE DIET (0.462% DHA by weight, with 0.115% alpha linolenic acid by weight). The females continued to receive the specific diet throughout pregnancy and lactation. Homozygous, heterozygous, and wild-type pups born to pregnant females were placed on the same specific maternal diet at weaning. The number of reeler mice was recorded within each diet group. […] Pups were sacrificed at between 8 and 14 weeks of age and tissues were collected for fatty acid analysis.",
  "data": [
    {"smiles": "CCC=CCC=CCC=CCC=CCC=CCC=CCCC(=O)O", "note": "[DHA, 4,7,10,13,16,19-docosahexaenoic acid]", "values": [
      {"measurement": "reduction of the incidence of male reeler animals", "result": "~3", "unit": "fold"}
    ]}
  ]
}
